Source: patent US6737383B1, “Herbicidal oxadiazolidines” (priority 1999, dated 2004)

Columns and labels:
soybean = assay: Test B pre/postemergence soybean; format: in vivo, Glycine max
In short: (§1)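 Herbicidal effect was estimated by eye on a ten-point control scale after plants spent twelve to sixteen days in a greenhouse following soil or foliar treatment. Foliar sprays targeted plants at one to four leaves; all doses were formulated in a non-phytotoxic solvent with surfactant.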

purple nutsedge = assay: Test B pre/postemergence purple nutsedge; format: in vivo, Cyperus rotundus
In short: as §1

pigweed = assay: Test B pre/postemergence pigweed; format: in vivo, Amaranthus retroflexus
In short: as §1

cocklebur = assay: Test B pre/postemergence cocklebur; format: in vivo, Xanthium strumarium
In short: as §1

giant foxtail = assay: Test B pre/postemergence giant foxtail; format: in vivo, Setaria faberii
In short: as §1

surinam grass = assay: Test B pre/postemergence surinam grass; format: in vivo, Brachiaria decumbens
In short: as §1

rape = assay: Test B pre/postemergence rape; format: in vivo, Brassica napus
In short: as §1

crabgrass = assay: Test B pre/postemergence crabgrass; format: in vivo, Digitaria sanguinalis
In short: as §1

duck salad = assay: Test B flood test duck salad; format: in vivo, Heteranthera limosa
In short: (§2)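 Each value is a visual injury score relative to controls, with 10 meaning complete control and 0 no effect. Evaluation took place twelve to sixteen days after the 2-leaf-stage plants were treated and kept in the greenhouse.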

smallflower flatsedge = assay: Test B flood test smallflower flatsedge; format: in vivo, Cyperus difformis
In short: as §2

blackgrass = assay: Test B pre/postemergence blackgrass; format: in vivo, Alopecurus myosuroides
In short: as §1

sugar beet = assay: Test B pre/postemergence sugar beet; format: in vivo, Beta vulgaris
In short: as §1

bamyardgrass = assay: Test B flood test barnyardgrass; format: in vivo, Echinochloa crus-galli
In short: as §2

wild oat = assay: Test B pre/postemergence wild oat; format: in vivo, Avena fatua
In short: as §1

wheat = assay: Test B pre/postemergence wheat; format: in vivo, Triticum aestivum
In short: as §1

corn = assay: Test B pre/postemergence corn; format: in vivo, Zea mays
In short: as §1

morningglory = assay: Test B pre/postemergence morningglory; format: in vivo, Ipomoea hederacea
In short: as §1

rice = assay: Test B flood test rice; format: in vivo, Oryza sativa
In short: as §2

velvetleaf = assay: Test B pre/postemergence velvetleaf; format: in vivo, Abutilon theophrasti
In short: as §1

[1] = Postemergence, Rate 62 g/ha, scale 0 to 10, 0 is no effect, 10 is complete control
[2] = Postemergence, Rate 125 g/ha, scale of 0 to 10 where 0 is no effect and 10 is complete control
[3] = Postemergence, Rate 250 g/ha, scale of 0 to 10, 0 is no effect, 10 is complete control
[4] = Postemergence, Rate 500 g/ha, scale of 0 to 10 where 0 is no effect and 10 is complete control
[5] = Preemergence, Rate 62 g/ha, scale 0 to 10 (0 no effect, 10 complete control)
[6] = Preemergence, Rate 125 g/ha, scale of 0 to 10 where 0 is no effect and 10 is complete control
[7] = Preemergence, Rate 500 g/ha, scale of 0 to 10 where 0 is no effect and 10 is complete control
[8] = Rate 62 g/ha, flood test species, Pre-emergence, visual evaluation after twelve to sixteen days
[9] = Rate 125 g/ha, under heading Pre-emergence, flood test species, visual evaluation after twelve to sixteen days
[10] = Rate 250 g/ha, Pre-emergence (flood test species), scale 0 to 10, 0 is no effect, 10 is complete control
[11] = Rate 500 g/ha, Pre-emergence section of Table B, 0 to 10 scale (0 no effect, 10 complete control)

With CC(C)N(C(=O)n1oc(=O)n(CC(C)[N+](=O)[O-])c1=O)c1ccc(F)cc1F (centres unmarked) [Compound 603] the “Plant response rating, Soybean” value (soybean; [1]) was 0, the “Plant response rating, Soybean” value (soybean; [2]) was 0 and the “Soybean plant response rating” value (soybean; [3]) was 2. For the same molecule, the “Plant response rating, Soybean” value (soybean; [4]) was 2, the “Soybean plant response rating” value (soybean; [5]) was 0 and the “Soybean plant response rating” value (soybean; [6]) was 0. For the same molecule, the “Plant response rating, Soybean” value (soybean; [7]) was 0, the “Plant response rating, Nutsedge” value (purple nutsedge; [1]) was 0 and the “Plant response rating, Nutsedge” value (purple nutsedge; [2]) was 0. The “Nutsedge plant response rating” value (purple nutsedge; [3]) was 0, the “Plant response rating, Nutsedge” value (purple nutsedge; [4]) was 0 and the “Nutsedge plant response rating” value (purple nutsedge; [5]) was 0. The “Nutsedge plant response rating” value (purple nutsedge; [6]) was 0, the “Plant response rating, Nutsedge” value (purple nutsedge; [7]) was 0 and the “Plant response rating, Redroot pigweed” value (pigweed; [1]) was 0. The “Plant response rating, Redroot pigweed” value (pigweed; [2]) was 0, the “Redroot pigweed plant response rating” value (pigweed; [3]) was 0 and the “Plant response rating, Redroot pigweed” value (pigweed; [4]) was 0. The “Redroot pigweed plant response rating” value (pigweed; [5]) was 0, the “Redroot pigweed plant response rating” value (pigweed; [6]) was 0 and the “Plant response rating, Redroot pigweed” value (pigweed; [7]) was 0. The “Plant response rating, Cocklebur” value (cocklebur; [1]) was 0, the “Plant response rating, Cocklebur” value (cocklebur; [2]) was 0 and the “Cocklebur plant response rating” value (cocklebur; [3]) was 0. For the same molecule, the “Plant response rating, Cocklebur” value (cocklebur; [4]) was 0, the “Cocklebur plant response rating” value (cocklebur; [5]) was 0 and the “Cocklebur plant response rating” value (cocklebur; [6]) was 0. For the same molecule, the “Cocklebur plant response rating (0 to 10 scale)” value (cocklebur; Preemergence, Rate 250 g/ha) was 0, the “Plant response rating, Cocklebur” value (cocklebur; [7]) was 0 and the “Plant response rating, Giant foxtail” value (giant foxtail; [1]) was 0. For the same molecule, the “Plant response rating, Giant foxtail” value (giant foxtail; [2]) was 0, the “Giant foxtail plant response rating” value (giant foxtail; [3]) was 0 and the “Plant response rating, Giant foxtail” value (giant foxtail; [4]) was 0. The “Giant foxtail plant response rating” value (giant foxtail; [5]) was 0, the “Giant foxtail plant response rating” value (giant foxtail; [6]) was 0 and the “Plant response rating, Giant foxtail” value (giant foxtail; [7]) was 0. For the same molecule, the “Plant response rating, B. signalgrass” value (surinam grass; [1]) was 0, the “Plant response rating, B. signalgrass” value (surinam grass; [2]) was 0 and the “B. signalgrass plant response rating” value (surinam grass; [3]) was 0. The “Plant response rating, B. signalgrass” value (surinam grass; [4]) was 0, the “B. signalgrass plant response rating” value (surinam grass; [5]) was 0 and the “B. signalgrass plant response rating” value (surinam grass; [6]) was 0. The “B. signalgrass plant response rating (0 to 10 scale, 0 is no effect, 10 is complete control)” value (surinam grass; Preemergence, Rate 250 g/ha) was 0, the “B. signalgrass plant response rating” value (surinam grass; [7]) was 0 and the “Plant response rating, Rape” value (rape; [1]) was 0. For the same molecule, the “Plant response rating, Rape” value (rape; [2]) was 0, the “Rape plant response rating” value (rape; [3]) was 0 and the “Plant response rating, Rape” value (rape; [4]) was 0. The “Rape plant response rating” value (rape; [5]) was 0, the “Rape plant response rating” value (rape; [6]) was 0 and the “Plant response rating, Rape” value (rape; [7]) was 0. For the same molecule, the “Plant response rating, Crabgrass” value (crabgrass; [1]) was 0, the “Plant response rating, Crabgrass” value (crabgrass; [2]) was 0 and the “Crabgrass plant response rating” value (crabgrass; [3]) was 0. For the same molecule, the “Plant response rating, Crabgrass” value (crabgrass; [4]) was 0, the “Crabgrass plant response rating” value (crabgrass; [5]) was 0 and the “Crabgrass plant response rating” value (crabgrass; [6]) was 0. For the same molecule, the “Plant response rating, Crabgrass” value (crabgrass; [7]) was 0, the “Plant response rating, Ducksalad (0 to 10 scale, 0 is no effect, 10 is complete control)” value (duck salad; [8]) was 0 and the “Ducksalad plant response rating (0 to 10 scale, 0 is no effect, 10 is complete control)” value (duck salad; [9]) was 0. The “Ducksalad plant response rating” value (duck salad; [10]) was 0, the “Ducksalad plant response rating” value (duck salad; [11]) was 0 and the “Plant response rating, S. Flatsedge (0 to 10 scale, 0 is no effect, 10 is complete control)” value (smallflower flatsedge; [8]) was 0. For the same molecule, the “S. Flatsedge plant response rating (0 to 10 scale, 0 is no effect, 10 is complete control)” value (smallflower flatsedge; [9]) was 0, the “S. Flatsedge plant response rating” value (smallflower flatsedge; [10]) was 0 and the “S. Flatsedge plant response rating” value (smallflower flatsedge; [11]) was 0. The “Plant response rating, Blackgrass” value (blackgrass; [1]) was 0, the “Plant response rating, Blackgrass” value (blackgrass; [2]) was 0 and the “Blackgrass plant response rating” value (blackgrass; [3]) was 0. The “Plant response rating, Blackgrass” value (blackgrass; [4]) was 0, the “Blackgrass plant response rating” value (blackgrass; [5]) was 0 and the “Blackgrass plant response rating” value (blackgrass; [6]) was 0. For the same molecule, the “Blackgrass plant response rating (0 to 10 scale)” value (blackgrass; Preemergence, Rate 250 g/ha) was 0, the “Blackgrass plant response rating” value (blackgrass; [7]) was 0 and the “Plant response rating, Sugarbeets” value (sugar beet; [1]) was 0. The “Plant response rating, Sugarbeets” value (sugar beet; [2]) was 0, the “Sugarbeets plant response rating” value (sugar beet; [3]) was 0 and the “Plant response rating, Sugarbeets” value (sugar beet; [4]) was 0. For the same molecule, the “Sugarbeets plant response rating” value (sugar beet; [5]) was 0, the “Sugarbeets plant response rating” value (sugar beet; [6]) was 0 and the “Plant response rating, Sugarbeets” value (sugar beet; [7]) was 0. For the same molecule, the “Plant response rating, Barnyardgrass (0 to 10 scale, 0 is no effect, 10 is complete control)” value (bamyardgrass; [8]) was 0, the “Barnyardgrass plant response rating (0 to 10 scale, 0 is no effect, 10 is complete control)” value (bamyardgrass; [9]) was 0 and the “Barnyardgrass plant response rating” value (bamyardgrass; [10]) was 0. The “Barnyardgrass plant response rating” value (bamyardgrass; [11]) was 0, the “Plant response rating, Wild oats” value (wild oat; [1]) was 0 and the “Plant response rating, Wild oats” value (wild oat; [2]) was 0. For the same molecule, the “Wild oats plant response rating” value (wild oat; [3]) was 0, the “Plant response rating, Wild oats” value (wild oat; [4]) was 0 and the “Wild oats plant response rating” value (wild oat; [5]) was 0. The “Wild oats plant response rating” value (wild oat; [6]) was 0, the “Plant response rating, Wild oats” value (wild oat; [7]) was 0 and the “Plant response rating, Wheat” value (wheat; [1]) was 0. For the same molecule, the “Plant response rating, Wheat” value (wheat; [2]) was 0, the “Wheat plant response rating” value (wheat; [3]) was 0 and the “Plant response rating, Wheat” value (wheat; [4]) was 0. For the same molecule, the “Wheat plant response rating” value (wheat; [5]) was 0, the “Wheat plant response rating” value (wheat; [6]) was 0 and the “Plant response rating, Wheat” value (wheat; [7]) was 0. For the same molecule, the “Plant response rating, Corn” value (corn; [1]) was 0, the “Plant response rating, Corn” value (corn; [2]) was 0 and the “Corn plant response rating” value (corn; [3]) was 0. The “Plant response rating, Corn” value (corn; [4]) was 0, the “Corn plant response rating” value (corn; [5]) was 0 and the “Corn plant response rating” value (corn; [6]) was 0. The “Corn plant response rating (0 to 10 scale)” value (corn; Preemergence, Rate 250 g/ha) was 0, the “Plant response rating, Corn” value (corn; [7]) was 0 and the “Plant response rating, Morningglory” value (morningglory; [1]) was 0. The “Plant response rating, Morningglory” value (morningglory; [2]) was 0, the “Morningglory plant response rating” value (morningglory; [3]) was 2 and the “Plant response rating, Morningglory” value (morningglory; [4]) was 3. The “Morningglory plant response rating” value (morningglory; [5]) was 0, the “Morningglory plant response rating” value (morningglory; [6]) was 0 and the “Plant response rating, Morningglory” value (morningglory; [7]) was 0. The “Plant response rating, Rice (0 to 10 scale, 0 is no effect, 10 is complete control)” value (rice; [8]) was 0, the “Rice plant response rating (0 to 10 scale, 0 is no effect, 10 is complete control)” value (rice; [9]) was 0 and the “Rice plant response rating” value (rice; [10]) was 0. The “Rice plant response rating” value (rice; [11]) was 0, the “Plant response rating, Velvetleaf” value (velvetleaf; [1]) was 0 and the “Plant response rating, Velvetleaf” value (velvetleaf; [2]) was 0. For the same molecule, the “Velvetleaf plant response rating” value (velvetleaf; [3]) was 0, the “Plant response rating, Velvetleaf” value (velvetleaf; [4]) was 2 and the “Velvetleaf plant response rating” value (velvetleaf; [5]) was 0. The “Velvetleaf plant response rating” value (velvetleaf; [6]) was 0 and the “Plant response rating, Velvetleaf” value (velvetleaf; [7]) was 0.
